Among the data in patent US20230227449A1, “AMIDOPYRIMIDONE DERIVATIVES” (Hoffmann-La Roche Inc., priority 2020, published 2023) are IC50 values, retold here.

As a reminder, the IC50 is the concentration that inhibits the measured activity by half.

Bounds are passed on as bounds.

Recombinant human Mat2a, sequence (P31153 whole entry): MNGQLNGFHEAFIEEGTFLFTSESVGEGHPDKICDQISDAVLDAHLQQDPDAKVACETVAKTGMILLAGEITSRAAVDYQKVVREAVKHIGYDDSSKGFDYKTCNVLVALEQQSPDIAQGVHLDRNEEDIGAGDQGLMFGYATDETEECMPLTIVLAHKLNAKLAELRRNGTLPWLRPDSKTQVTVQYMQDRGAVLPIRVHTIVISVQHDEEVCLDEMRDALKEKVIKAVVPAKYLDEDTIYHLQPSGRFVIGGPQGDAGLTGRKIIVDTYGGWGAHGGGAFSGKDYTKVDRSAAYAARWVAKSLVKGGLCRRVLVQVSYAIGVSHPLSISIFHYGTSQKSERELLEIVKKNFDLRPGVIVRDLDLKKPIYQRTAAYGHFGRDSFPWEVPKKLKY

The experiment deals with Recombinant human Mat2a (Homo sapiens, UniProt P31153). Nature of the experiment: Determination of Mat2A activity (384 well absorbance-based assay, Biomol Green). The experiment is classed as biochemical. The conditions noted are these: 12.5 nM Mat2A, 100 μM ATP and Methionine, 2% DMSO, 120 minutes at RT, absorbance at 635 nm. Summed up:
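Recombinant human Mat2A (12.5 nM) was preincubated with compound for 15 min at RT in HEPES pH 7.5 buffer with 2% DMSO. The reaction was started with 100 μM each of ATP and methionine and ran 120 min at RT. Phosphate was detected with Biomol Green by absorbance at 635 nm.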
For `CC(c1ccccn1)n1c(=O)nc(N)c2ccc(C3CC3)nc21` (centres unmarked) [Example 82, 4-amino-7-cyclopropyl-1-(1-pyridin-2-ylethyl)pyrido[2,3-d]pyrimidin-2-one], the IC50 was 36 nM.

Consider `Nc1nc(=O)n(C2CCCOC23CC3)c2cc(OC(F)F)ccc12` (centres unmarked) [Example 150, 4-amino-7-(difluoromethoxy)-1-(4-oxaspiro[2.5]octan-8-yl)quinazolin-2 (1H)-one], for which the IC50 worked out at 130 nM. Then `Cc1c(F)cccc1-n1c(=O)nc(N)c2ccc(C(F)(F)F)nc21` [Example 165, 4-amino-1-(3-fluoro-2-methylphenyl)-7-(trifluoromethyl)pyrido[2,3-d]pyrimidin-2 (1H)-one], with < 13 nM. To `C[C@H](c1cnco1)n1c(=O)nc(N)c2ccc(C3CC3)nc21` [Example 75, 4-amino-7-cyclopropyl-1-(1-(oxazol-5-yl)ethyl)pyrido[2,3-d]pyrimidin-2(1H)-one] belongs 99 nM; to `Nc1nc(=O)n(C2CCNC(=O)C2)c2nc(C3CC3)ccc12` (centres unmarked) [Example 97, 4-amino-7-cyclopropyl-1-(2-oxopiperidin-4-yl)pyrido[2,3-d]pyrimidin-2 (1H)-one], 48 nM.

With `Nc1nc(=O)n([C@H]2CCCCOC2)c2nc(C3CC3)ccc12` [Example 125, (S)-4-amino-7-cyclopropyl-1-(oxepan-3-yl)pyrido[2,3-d]pyrimidin-2 (1H)-one], the IC50 came out at 40 nM.

With `COc1nccc(F)c1-n1c(=O)nc(N)c2ccc(C3CC3)nc21` [Example 60, 4-amino-7-cyclopropyl-1-(4-fluoro-2-methoxypyridin-3-yl)pyrido[2,3-d]pyrimidin-2(1H)-one], the IC50 was 20 nM.

With `Nc1nc(=O)n(-c2cccc(Cl)c2F)c2nc(C3CC3)ccc12` [Example 161, 4-amino-1-(3-chloro-2-fluorophenyl)-7-cyclopropylpyrido[2,3-d]pyrimidin-2-one], the IC50 is < 13 nM. To `Cc1c(F)cccc1-n1c(=O)nc(N)c2ccc(C3CC3)nc21` (single isomer, unassigned) [Example 103, (+)-4-amino-7-cyclopropyl-1-(3-fluoro-2-methylphenyl)pyrido[2,3-d]pyrimidin-2 (1H)-one] belongs < 13 nM; to `COc1cccc(-n2c(=O)nc(N)c3ccc(C4CC4)nc32)c1` [Example 71, 4-amino-7-cyclopropyl-1-(3-methoxyphenyl)pyrido[2,3-d]pyrimidin-2(1H)-one], < 13 nM. Regarding `Cc1c(C#N)cccc1-n1c(=O)nc(N)c2ccc(C3CC3)nc21` (single isomer, unassigned) [Example 145, (+)-3-(4-amino-7-cyclopropyl-2-oxopyrido[2,3-d]pyrimidin-1 (2H)-yl)-2-methylbenzonitrile], the IC50 was < 13 nM. To `Nc1nc(=O)c(-c2ccccc2Cl)c2cc(C(F)(F)F)ccn12` [Example 149, 1-amino-4-(2-chlorophenyl)-6-(trifluoromethyl)pyrido[1,2-c]pyrimidin-3-one] belongs 24 nM; to `Cc1ncccc1-n1c(=O)nc(N)c2ccc(OC(F)(F)F)cc21` [Example 40, 4-amino-1-(2-methylpyridin-3-yl)-7-(trifluoromethoxy)quinazolin-2(1H)-one], < 13 nM. To `CCc1cccc(-n2c(=O)nc(N)c3ccc(C4CC4)nc32)c1` [Example 68, 4-amino-7-cyclopropyl-1-(3-ethylphenyl)pyrido[2,3-d]pyrimidin-2(1H)-one] belongs < 13 nM; to `Cc1ncccc1-n1c(=O)nc(N)c2ccc([C@H]3C[C@@H]3F)nc21` (racemic) [Example 36, 4-amino-7-[(1RS,2SR)-2-fluorocyclopropyl]-1-(2-methyl-3-pyridyl)pyrido[2,3-d]pyrimidin-2-one], < 13 nM; to `Nc1nc(=O)n(C2CCCOC2)c2nc(C3CC3)ccc12` (centres unmarked) [Example 12, 4-amino-7-cyclopropyl-1-(oxan-3-yl)pyrido[2,3-d]pyrimidin-2-one], < 13 nM. Then `Nc1nc(=O)n(-c2cc(F)ccc2Cl)c2nc(C3CC3)ccc12` [Example 156, 4-amino-1-(2-chloro-5-fluorophenyl)-7-cyclopropylpyrido[2,3-d]pyrimidin-2-one], with 21 nM. `Cc1c(C#N)cccc1-n1c(=O)nc(N)c2ccc(C3CC3)nc21` [Example 15, 3-(4-amino-7-cyclopropyl-2-oxopyrido[2,3-d]pyrimidin-1(2H)-yl)-2-methylbenzonitrile]: the half-inhibitory concentration (IC50) is < 13 nM.

On to `COc1c(C#N)cccc1-n1c(=O)nc(N)c2ccc(C3CC3)nc21` [Example 19, 3-(4-amino-7-cyclopropyl-2-oxopyrido[2,3-d]pyrimidin-1(2H)-yl)-2-methoxybenzonitrile], for which the IC50 is < 13 nM. Then `Nc1nc(=O)n(-c2ccccc2)c2nc(C3CC3)ccc12` [Example 74, 4-amino-7-cyclopropyl-1-phenylpyrido[2,3-d]pyrimidin-2(1H)-one], with 16 nM; and `Cc1ncccc1-n1c(=O)nc(N)c2cc(C#N)c(C3CC3)nc21` [Example 37, 4-amino-7-cyclopropyl-1-(2-methylpyridin-3-yl)-2-oxo-1,2-dihydropyrido[2,3-d]pyrimidine-6-carbonitrile], with 15 nM; and `Nc1nc(=O)n(-c2ccccc2Cl)c2nc(C3CC3)ccc12` (single isomer, unassigned) [Example 115, (−)-4-amino-1-(2-chlorophenyl)-7-cyclopropylpyrido[2,3-d]pyrimidin-2 (1H)-one], with 72 nM. Regarding `Nc1nc(=O)n(C2CCn3cncc32)c2nc(C3CC3)ccc12` (centres unmarked) [Example 112, 4-amino-7-cyclopropyl-1-(6,7-dihydro-5H-pyrrolo[1,2-c]imidazol-7-yl)pyrido[2,3-d]pyrimidin-2-one], the IC50 was found to be 39 nM. To `Cc1ncccc1-n1c(=O)nc(N)c2cc(F)c(C3CC3)nc21` [Example 10, 4-amino-7-cyclopropyl-6-fluoro-1-(2-methylpyridin-3-yl)pyrido[2,3-d]pyrimidin-2(1H)-one] belongs < 13 nM; to `Cc1ncccc1-n1c(=O)nc(N)c2ccc(C(C)C)nc21` [Example 16, 4-amino-1-(2-methylpyridin-3-yl)-7-propan-2-ylpyrido[2,3-d]pyrimidin-2-one], < 13 nM.

On to `Nc1nc(=O)n(-c2ccccc2C(F)(F)F)c2nc(C3CC3)ccc12` [Example 132, 4-amino-7-cyclopropyl-1-(2-(trifluoromethyl)phenyl)pyrido[2,3-d]pyrimidin-2 (1H)-one], for which the IC50 was < 13 nM. Then `Cc1ccccc1-n1c(=O)nc(N)c2ccc(Cl)nc21` [Example 62, 4-amino-7-chloro-1-(o-tolyl)pyrido[2,3-d]pyrimidin-2(1H)-one], with 20 nM; and `Cc1ncncc1-n1c(=O)nc(N)c2ccc(C3CCCC3)nc21` [Example 55, 4-amino-7-cyclopentyl-1-(4-methylpyrimidin-5-yl)pyrido[2,3-d]pyrimidin-2-one], with 17 nM; and `Nc1nc(=O)n(-c2cc(F)cc(F)c2)c2nc(C3CC3)ccc12` [Example 70, 4-amino-7-cyclopropyl-1-(3,5-difluorophenyl)pyrido[2,3-d]pyrimidin-2(1H)-one], with 66 nM. Then `Cc1ncsc1-n1c(=O)nc(N)c2ccc(N3C4CCC3CC4)nc21` [Example 90, 4-amino-7-(7-azabicyclo[2.2.1]heptan-7-yl)-1-(4-methylthiazol-5-yl)pyrido[2,3-d]pyrimidin-2-one], with 13 nM; and `Cc1ncccc1-n1c(=O)nc(N)c2c(Cl)cc(C(F)(F)F)cc21` [Example 87, 4-amino-5-chloro-1-(2-methylpyridin-3-yl)-7-(trifluoromethyl)quinazolin-2(1H)-one], with 20 nM; and `Nc1nc(=O)n(-c2cccc(Cl)c2Cl)c2nc(C3CC3)ccc12` [Example 128, 4-amino-7-cyclopropyl-1-(2,3-dichlorophenyl)pyrido[2,3-d]pyrimidin-2 (1H)-one], with < 13 nM. Take `Nc1nc(=O)n(-c2cccc3c2CCO3)c2cc(C3CC3)ccc12` [Example 45, 4-amino-7-cyclopropyl-1-(2,3-dihydrobenzofuran-4-yl)quinazolin-2(1H)-one]: the IC50 is < 13 nM. Then `Nc1nc(=O)n(-c2ccccc2Cl)c2nc(C3CC3)ccc12` (single isomer, unassigned) [Example 114, (+)-4-amino-1-(2-chlorophenyl)-7-cyclopropylpyrido[2,3-d]pyrimidin-2 (1H)-one], with < 13 nM; and `Cc1ncccc1-n1c(=O)nc(O)c2ccc(C3CC3)nc21` [Example 101, 7-cyclopropyl-1-(2-methylpyridin-3-yl)pyrido[2,3-d]pyrimidine-2,4-dione], with 40 nM; and `COc1ncccc1-n1c(=O)nc(N)c2ccc(C3CCCCO3)nc21` (centres unmarked) [Example 54, 4-amino-1-(2-methoxy-3-pyridyl)-7-tetrahydropyran-2-yl-pyrido[2,3-d]pyrimidin-2-one], with 140 nM. Regarding `Nc1nc(=O)n([C@H]2CCC[C@H]2O)c2nc(C3CC3)ccc12` (racemic) [Example 24, 4-amino-7-cyclopropyl-1-((1SR,2RS)-2-hydroxycyclopentyl)pyrido[2,3-d]pyrimidin-2(1H)-one], the IC50 worked out at 17 nM. To `Cc1ccccc1-n1c(=O)nc(N)c2ccc(OC(F)F)nc21` [Example 91, 4-amino-7-(difluoromethoxy)-1-(2-methylphenyl)pyrido[2,3-d]pyrimidin-2-one] belongs < 13 nM; to `C[C@@H]1OCC[C@@H]1n1c(=O)nc(N)c2ccc(C3CC3)nc21` (relative stereo) [Example 89, 4-amino-7-cyclopropyl-1-((cis)-2-methyltetrahydrofuran-3-yl)pyrido[2,3-d]pyrimidin-2(1H)-one], 53 nM; to `Cc1ncccc1-n1c(=O)nc(N)c2ccc(OC(F)F)cc21` [Example 34], < 13 nM.

For `Nc1nc(=O)n(-c2cccc3ncsc23)c2nc(C3CC3)ccc12` [Example 120], the IC50 is < 13 nM.
